Assay results: PubChem BioAssay (NCI)
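In this assay, cells in 96-well plates receive the compound at five concentrations for 48 hours. Endpoints are linearly interpolated between the surrounding concentrations. Definition used: TGI = concentration required for complete inhibition of growth.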

Assays:
Assay in all cases: growth of human tumour cells (NCI), 48 h
[1] = system: A498 renal
[2] = system: ACHN renal
[3] = system: DU-145 prostate
[4] = system: HCT-116 colon
[5] = system: HL-60(TB) leukemia
[6] = system: HOP-92 NSCLC
[7] = system: HT29 colon
[8] = system: IGROV1 ovarian
[9] = system: MCF7 breast
[10] = system: MDA-N
[11] = system: NCI-H460 lung
[12] = system: PC-3 prostate
[13] = system: SF-295 CNS
[14] = system: SF-539 CNS
[15] = system: SK-MEL-28 melanoma
[16] = system: SK-OV-3 ovarian
[17] = system: SN12C renal
[18] = system: SNB-19 CNS
[19] = system: SNB-75 CNS
[20] = system: SW-620 colon

Measured: TGI

O=C1N(CN2CCOCC2)CN(CN2CCOCC2)C(=O)N1Cc1ccc(CN2C(=O)N(CN3CCOCC3)CN(CN3CCOCC3)C2=O)cc1
> 100 µM: all assays above

N#CCC1(c2ccc(Cl)cc2)NC(=O)c2ccccc21 (stereo not given)
> 100 µM: all assays above

CC(C)(C)OC(=O)NC(CS(=O)(=O)O)C(=O)O (stereo not given)
> 100 µM: all assays above

Nc1c(Br)cc(-c2nc3ccccc3s2)cc1Br
> 100 µM: all assays above
